The target in one assay is T1, HLA-B7 (Homo sapiens, UniProt P01889).
T1 construct: transfected with the HLA-B7 gene; expressed in transfected cells; host or cells: T2 (TAP1/TAP2-deficient hybrid B and T lymphoblastoid cell line) transfected with the HLA-B7 gene (T2.B7, gift of Peter Cresswell)
Nature of the assay: T2-B7 binding assay: stabilization of HLA-B7 molecules on the surface of T2-B7 cells, flow cytometry. To be noted: for binding affinity for HLA-B7 compared with natural RS10 peptide: FIGS. 4 and 6; for EC50: FIGS. 4 and 6, read-out: concentration required for a 50% increase in HLA-B7 expression. As for the experimental part:
A chromosomal translocation-generated fusion protein breakpoint peptide, RS10 (SPQNSIRHNL), is selected on the basis of predicted potential binding to HLA-B7 (Rammensee et al., Immunogenetics 41: 178-228 (1995)). Peptide binding to HLA-B7 is assessed by using stabilization of HLA-B7 molecules on the surface of T2-B7 cells that lack the TAP transporter and therefore express only short-lived empty HLA-B7 molecules unless a peptide is present that can bind and stabilize them. These assays are described in (Stuber et al., Eur. J. Immunol., 22, 2697-2703 (1992), Nijman et al., Eur. J. Immunol., 23, 1215-1219 (1993), Zeh et al., Hum. Immunol., 39, 79-86 (1994), and Smith et al., Internat. Immunol., 9, 1085-1093 (1997)). Cells of the TAP1/TAP2-deficient T2 cell line (Salter et al., Immunogenetics, 21, 235-246 (1985), and Spies et al., Nature, 351, 323-324 (1991)) transfected with the HLA-B7 gene are suspended in culture medium containing heat inactivated FCS (2.5% v/v) and added to 96-well round-bottomed plates at 2×10^5 cells/well. Human β2-microglobulin (Sigma Chemical Co.) is also added at 20 μg/well. Where appropriate, peptide is added to the desired concentration. The cells are then incubated overnight at 37° C. in 5% CO2, followed by washing with PBS containing NaN3 (0.5% w/v and FCS 2% v/v). Next, cells are incubated on ice for 30 min in the presence of primary anti-HLA-B7 specific antibody (BB7.1 hybridoma culture supernatant; ATCC), followed by washing and incubation for 30 min in goat anti-mouse immunoglobulin FITC (Becton Dickinson). Analysis is performed by flow cytometry.
Conventional mAb staining is conducted in PBS containing 0.01% sodium azide on ice. Cells are labeled with FITC- or PE-conjugated mAbs obtained from BD PharMingen (San Diego, Calif.). For each staining of interest, the appropriate isotype-matched control is included. All reagents are used at optimal concentration as determined experimentally. Flow cytometric analysis is performed with a FACScan (BD Biosciences, Mountain View, Calif.). Data are collected on 5000-10,000 viable cell events and analyzed with CellQuest software.
Background: In flow cytometry, cells or beads pass a laser one at a time.

A further assay relates to C1R-B7 target cells. The assay can be described thus: 4 h 51Cr release assay, RS10-specific human CTL line against peptide pulsed C1R-B7 target cells. Format: cell-based. To be noted: peptide pulsed at 10 μM, various E:T ratios, versus control peptide. As for the experimental part:
In particular, specific cytotoxic activities are determined in a standard 4 h ^51Cr release assay at various effector:target (E:T) ratios. Briefly, graded doses of viable effector cells are plated in triplicate in 96-well U-bottom culture plates (Corning Glass, Corning, N.Y.) and co-cultured for 4 h with sodium chromate-labeled (100 μCi; NEN, Boston, Mass.) peptide pulsed (10 μM) C1R-B7 target cells. In some experiments, the Rh5, RD and CTR tumor cell lines are used as a target. Supernatants are collected, radioactivity measured, and specific lysis is calculated according to the equation: percentage of specific cytotoxicity=(experimental cpm−spontaneous cpm)/(maximum cpm−spontaneous cpm)×100. Maximum ^51Cr release is determined from supernatants of lysed target cells incubated with Triton X-100 (5% v/v). Spontaneous release is determined from target cells incubated without added effector cells.

Experimental findings from patent US9206245B2, “Immunogenic peptides and methods of use for treating and preventing cancer” (The United States of America, as represented by the …, priority 2005, dated 2015) are described below.

Where no end group is shown, it is not given here.

T1 sequence (P01889 25-362): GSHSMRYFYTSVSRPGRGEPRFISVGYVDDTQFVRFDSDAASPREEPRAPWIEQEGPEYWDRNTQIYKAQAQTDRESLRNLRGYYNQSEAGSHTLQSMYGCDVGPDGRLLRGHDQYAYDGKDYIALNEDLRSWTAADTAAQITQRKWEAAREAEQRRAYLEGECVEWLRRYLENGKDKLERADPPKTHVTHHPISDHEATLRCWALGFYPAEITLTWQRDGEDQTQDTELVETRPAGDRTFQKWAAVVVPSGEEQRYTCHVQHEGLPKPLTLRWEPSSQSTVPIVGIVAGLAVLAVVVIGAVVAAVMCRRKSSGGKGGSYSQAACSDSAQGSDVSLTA
T1 sequence (P61769 21-119 partner): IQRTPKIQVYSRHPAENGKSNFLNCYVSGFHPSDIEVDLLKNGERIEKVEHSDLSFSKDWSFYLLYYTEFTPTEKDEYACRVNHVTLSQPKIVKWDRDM

For SPQNSARHNL [RS10-6A], the “binding affinity for HLA-B7 compared with natural RS10 peptide” value with HLA-B7 is given as “higher binding affinity for HLA-B7 than the natural RS10 peptide”.

Consider SPANSIRHNL [RS10-3A, SPANSIRHNL], for which, in the assay with C1R-B7 target cells, the “CTL lysis of peptide pulsed C1R-B7 target cells” value was “specific killing observed”. At HLA-B7, the “binding affinity for HLA-B7 compared with natural RS10 peptide” value was “higher binding affinity for HLA-B7 than the natural RS10 peptide” and the EC50 was approximately 50 nM.

Take SPQNSIRHNL [RS10, SPQNSIRHNL]: the EC50 at HLA-B7 was approximately 300 nM.

As for SPQNAIRHNL [RS10-5A], the “binding affinity for HLA-B7 compared with natural RS10 peptide” value with HLA-B7 is reported as “higher binding affinity for HLA-B7 than the natural RS10 peptide”.
